Results published in patent publication US5955479A, “Levobupivacaine for managing chronic pain” (Darwin Discovery Ltd., priority 1993, dated 1999).
Structures can show the parent of a compound that is named as a salt.

How the values were obtained:
[1] = Fatal dose of racbupivacaine HCl in sheep (increasing bolus doses until a fatal outcome); format: in vivo
Procedure: (§1) Four sheep weighing 39-49 kg (mean 44, SD 4 kg) were given increasing bolus doses (from 40 mg) of racbupivacaine HCl These were administered at least 1 day apart via a PVC cannula until a fatal outcome resulted. The heart and brain were removed within 20 min of death to be analysed for bupivacaine concentration. The heart was removed by transection through the great vessels approximately 20 mm above the level of the aortic valve, and 20 mm below the caudal border of the right atrium. Blood was immediately expressed from the cardiac chambers, and representative samples of the left and right atrium and ventricle were obtained, blotted and stored frozen (-20° C.) until assay. The brain was removed by transection at the level of the lower border of the pons, blotted and stored frozen as for the heart tissue.

[2] = chronic epidural and opioid infusions, 0.1 to 0.5% bupivacaine, cancer pain; cited from earlier work
[3] = surgical wound infiltrated before closure, 0.25%; cited from earlier work
[4] = Tissue concentrations of bupivacaine enantiomers in sheep post-mortem after increasing bolus doses of racbupivacaine HCl until fatal outcome; format: in vivo
Procedure: as §1
The variability in the fatal doses (80-200 mg) was reflected in the tissue concentrations measured post-mortem. Larger differences in the concentrations of both bupivacaine enantiomers in the atrium and ventricle were apparent.

[5] = some pain syndromes; cited from earlier work
[6] = described in PCT/GB94/02249; cited from earlier work
[7] = Vanhoutte et al (1991); Denson et al (1992); cited from earlier work
[8] = sheep No. 1, fatal dose 80 mg racbupivacaine HCl
[9] = sheep No. 2, fatal dose 80 mg racbupivacaine HCl
[10] = sheep No. 3, fatal dose 200 mg racbupivacaine HCl
[11] = sheep No. 4, fatal dose 200 mg racbupivacaine HCl
[12] = levobupivacaine vs dexbupivacaine

CCCCN1CCCCC1C(=O)Nc1c(C)cccc1C (racemic) [racbupivacaine HCl]
Fatal doses (variability) ([1]; four sheep, increasing bolus doses): 80 to 200 mg | Fatal dose ([1]; sheep No. 1, increasing bolus doses): 80 mg | Fatal dose ([1]; sheep No. 2, increasing bolus doses): 80 mg | Fatal dose ([1]; sheep No. 3, increasing bolus doses): 200 mg | Fatal dose ([1]; sheep No. 4, increasing bolus doses): 200 mg

CCCCN1CCCCC1C(=O)Nc1c(C)cccc1C (racemic) [racemic bupivacaine, 1-butyl-N-(2,6-dimethylphenyl)-2-piperidinecarboxamide]
Bupivacaine clearance [2]: progressive reduction in bupivacaine clearance | Control of post-operative pain [3]: effective in the control of post-operative pain | Opioid requirements of patients recovering from herniorrhaphy [3]: reduce the opioid requirements | R:S ratio of tissue concentration, Atrium [4, 8]: 0.92 | R:S ratio of tissue concentration, Brain [4, 8]: 1.06 | R:S ratio of tissue concentration, Ventricle [4, 8]: 1.18 | R:S ratio of tissue concentration, Atrium [4, 9]: 1.08 | R:S ratio of tissue concentration, Brain [4, 9]: 1.08 | R:S ratio of tissue concentration, Ventricle [4, 9]: 1.05 | R:S ratio of tissue concentration, Atrium [4, 10]: 0.99 | R:S ratio of tissue concentration, Brain [4, 10]: 1.09 | R:S ratio of tissue concentration, Ventricle [4, 10]: 1.03 | R:S ratio of tissue concentration, Atrium [4, 11]: 1.02 | R:S ratio of tissue concentration, Brain [4, 11]: 1.08 | R:S ratio of tissue concentration, Ventricle [4, 11]: 1.03 | Analgesic usefulness in chronic administration [5]: useful in chronic administration as an analgesic in some pain syndromes

CCCCN1CCCC[C@@H]1C(=O)Nc1c(C)cccc1C [dexbupivacaine]
Uptake of enantiomers by ventricle and brain ([4]; both P=0.03 by the Students paired t test, four sheep): more (+)-(R)- than (-)-(S)-bupivacaine being taken up by these tissues | Uptake of enantiomers by atrium ([4]; four sheep, difference R vs S): This was not so for the atrium | Tissue concentration, Atrium [4, 8]: 5.70 µg/g | Tissue concentration, Brain [4, 8]: 6.91 µg/g | Tissue concentration, Ventricle [4, 8]: 9.93 µg/g | Tissue concentration, Atrium [4, 9]: 3.94 µg/g | Tissue concentration, Brain [4, 9]: 4.97 µg/g | Tissue concentration, Ventricle [4, 9]: 7.70 µg/g | Tissue concentration, Atrium [4, 10]: 17.9 µg/g | Tissue concentration, Brain [4, 10]: 12.7 µg/g | Tissue concentration, Ventricle [4, 10]: 45.6 µg/g | Tissue concentration, Atrium [4, 11]: 21.5 µg/g | Tissue concentration, Brain [4, 11]: 17.2 µg/g | Tissue concentration, Ventricle [4, 11]: 34.1 µg/g

CCCCN1CCCC[C@H]1C(=O)Nc1c(C)cccc1C [levobupivacaine]
Cardiodepressant effect relative to racemic bupivacaine [6]: reduced cardiodepressant effect | Accumulation in the heart and brain [4, 12]: does not accumulate in the heart and brain as much as the other component (dexbupivacaine) | Tissue uptake into ventricle and brain vs dexbupivacaine [4, 12]: less tissue uptake of levobupivacaine into ventricle and brain than dexbupivacaine | Clearance ([4]; levobupivacaine vs dexbupivacaine, inferred from tissue uptake): improved clearance | Tissue concentration, Atrium [4, 8]: 6.22 µg/g | Tissue concentration, Brain [4, 8]: 6.53 µg/g | Tissue concentration, Ventricle [4, 8]: 8.44 µg/g | Tissue concentration, Atrium [4, 9]: 3.65 µg/g | Tissue concentration, Brain [4, 9]: 4.59 µg/g | Tissue concentration, Ventricle [4, 9]: 7.36 µg/g | Tissue concentration, Atrium [4, 10]: 18.0 µg/g | Tissue concentration, Brain [4, 10]: 11.7 µg/g | Tissue concentration, Ventricle [4, 10]: 44.1 µg/g | Tissue concentration, Atrium [4, 11]: 21.2 µg/g | Tissue concentration, Brain [4, 11]: 16.3 µg/g | Tissue concentration, Ventricle [4, 11]: 33.3 µg/g | Cardiotoxicity relative to dexbupivacaine and racemic bupivacaine [7]: probably less cardiotoxic than dexbupivacaine and racemic bupivacaine
